The values below come from ChEMBL document CHEMBL5260848, “Recent advancements in the development of bioactive pyrazoline derivatives” (Eur J Med Chem, 2020).

In brackets after ≈: the same amount, converted by molar mass.

A short description of assay [1]: Growth inhibition of human Panel NCI-58 (58 carcinoma cell lines) cells by SRB method. It counts as functional. Background: In SRB staining, fixed cells bind dye roughly in proportion to their protein.
The test system of assay [2] is UO-31. Briefly: Cytotoxicity against human UO-31 cells by SRB method. As to conditions: read-out: LC50 (the source's name). The format is functional.
For assay [3], the system named is UO-31. Briefly: Growth inhibition of human UO-31 cells by SRB method. It counts as functional.
The nature of assay [4]: Cytotoxicity against human Panel NCI-58 (58 carcinoma cell lines) cells by SRB method. It counts as functional. As to conditions: read-out: LC50 (the source's name).
Assay [5] has as its system Mycobacterium tuberculosis. It counts as functional. As to conditions: time 5 day.
Assay [6] deals with Mycobacterium tuberculosis. The format is functional. As to conditions: time 5 day. The source holds these as a separate data set.
Assay [7] deals with Mycobacterium tuberculosis. It counts as functional. As to conditions: time 5 day. The source holds these as a separate data set.
The subject of assay [8] is Escherichia coli. In words: Antibacterial activity against Escherichia coli incubated for 24 hrs by disc diffusion method. The format is functional. In general terms: A growth-free zone around the sample is the usual read-out of agar diffusion tests.
For the next assay, the system named is Aspergillus fumigatus. In words: Antifungal activity against Aspergillus fumigatus incubated for 24 hrs by disc diffusion method. It counts as functional.
In the next assay the test system is Aspergillus niger. Briefly: Antifungal activity against Aspergillus niger incubated for 24 hrs by disc diffusion method. The format is functional.
In the next assay the test system is Aspergillus flavus. Briefly: Antifungal activity against Aspergillus flavus incubated for 24 hrs by disc diffusion method. The format is functional.
The test system of assay [9] is Mycobacterium tuberculosis. In words: microbe, parasite or virus in culture. As to conditions: 120 h.
In assay [10] the test system is Staphylococcus aureus. Briefly: microbe, parasite or virus in culture. As to conditions: 24 h.
In assay [11] the test system is Bacillus subtilis. In words: microbe, parasite or virus in culture. As to conditions: 24 h.
The next assay deals with Pseudomonas aeruginosa. In words: microbe, parasite or virus in culture. As to conditions: 24 h.
Another assay concerns Candida albicans. Briefly: microbe, parasite or virus in culture. As to conditions: 24 h.
Another assay concerns A549. In words: Cytotoxicity against human A549 cells by SRB assay. It counts as functional.
A further assay deals with HeLa. Briefly: Cytotoxicity against human HeLa cells by SRB assay. The format is functional.
Another assay has as its system DU-145. Briefly: Cytotoxicity against human DU-145 cells by SRB assay. It counts as functional.
The test system of the next assay is HepG2. In words: Cytotoxicity against human HepG2 cells by SRB assay. It counts as functional.
The subject of the next assay is ECa-109 cell line. Briefly: Anticancer activity against human Eca-109 cells by MTS assay. It counts as functional, cell-based.
Assay [12] can be described thus: Anticancer activity against human HCC446 cells by MTS assay. The format is functional, cell-based. In general terms: Tetrazolium dyes change colour on reduction, which living cells bring about.
A further assay deals with AGS. Briefly: Anticancer activity against human AGS cells by MTS assay. It counts as functional, cell-based.
In a further assay the test system is Klebsiella pneumoniae. In words: Antimicrobial activity against Klebsiella pneumoniae. The format is functional.
Assay [13] relates to Staphylococcus aureus. Briefly: microbe, parasite or virus in culture.
The subject of assay [14] is Escherichia coli. Briefly: microbe, parasite or virus in culture.
A short description of assay [15]: Inhibition of Bacillus subtilis DNA gyrase.
Assay [16] has as its system Staphylococcus aureus. In words: microbe, parasite or virus in culture. This is another data set of the same source.
Assay [17] deals with Bacillus subtilis. In words: microbe, parasite or virus in culture.

Usually GI50 stands for the concentration at which growth is held to half of that of the control. A higher GI50 goes with lower sensitivity of the cells. For `O=C(/C=C/c1ccc(C(F)(F)F)cc1)c1ccc(Nc2nc(NCCO)nc(NCCO)n2)cc1`, the GI50 was found to be 0.569 µM in [1] and 1.5 µM in the assay with UO-31 [3]. Moreover, the figures for the CC50 (in the assay with UO-31 [2]; in assay [4]) were 19.5 µM and 5.15 µM, respectively.

Consider `O=C(NNS(=O)(=O)c1ccccc1)N1N=C(c2ccccc2)CC1c1ccccc1` (centres undefined), for which the Ratio came to 7.81 in [5], 3.9 in assay [6] and 3.9 in assay [7]. Also, the MIC came out at 25 µg/mL (≈ 59.5 µM) with Escherichia coli [8]; 25 µg/mL (≈ 59.5 µM) in the assay on Aspergillus fumigatus; 25 µg/mL (≈ 59.5 µM) in the assay on Aspergillus niger; 25 µg/mL (≈ 59.5 µM) in the assay with Aspergillus flavus; 0.8 µg/mL (≈ 1.9 µM) in [9]; 25 µg/mL (≈ 59.5 µM) in the assay with Staphylococcus aureus [10]. Moreover, the MIC in the assay on Bacillus subtilis [11], in the assay on Pseudomonas aeruginosa and in the assay with Candida albicans was 25 µg/mL (≈ 59.5 µM) each time.

Turning to `COc1ccc(C2CC(c3cc(OC)c(OC)c(OC)c3)=NN2C(C)=O)cc1OCc1cn(Cc2ccc(F)c(Cl)c2)nn1` (centres undefined), the GI50 with A549, in the assay on HeLa, in the assay on DU-145 and with HepG2 was 7 µM throughout.

By IC50 is commonly meant the midpoint of a concentration-inhibition curve. Low readings indicate higher potency, high ones lower potency. For `C[C@]12CCC3(CC1=CCC1C2CC[C@]2(C)C4=NN[C@H](c5ccccc5)[C@H]4CC12)OCCO3` (some centres undefined), the IC50 came out at 17.5 µM with ECa-109 cell line, 25.3 µM in assay [12] and 27.4 µM with AGS.

On to `CCOC(=O)C1N=NN(CC(=O)N2N=C(c3ccccc3)CC2c2cccs2)C1C(=O)OCC` (centres undefined), for which the MIC in the assay with Klebsiella pneumoniae was determined as 15 µg/mL (≈ 31 µM); in the assay with Staphylococcus aureus [13], 3.9 µg/mL (≈ 8.07 µM); with Escherichia coli [14], 3.9 µg/mL (≈ 8.07 µM).

Regarding `CC(=O)N1N=C(c2ccc(C)cc2)CC1c1cc(Cl)ccc1Oc1c([N+](=O)[O-])cc(C(F)(F)F)cc1[N+](=O)[O-]` (centres undefined), in [15], the IC50 turned out to be 0.125 µg/mL (≈ 0.222 µM). Besides, the MIC against Staphylococcus aureus [16] and with Bacillus subtilis [17] was 0.39 µg/mL (≈ 0.693 µM) in each case.
